“Also recorded” adds a separate entry of the source.
Experiments:
[1] = test system: hemodynamic and electrocardiographic parameters; assay: Cardiovascular telemetry study; assay type: in vivo, cynomolgus monkey; settings: up to 150 mg/kg
Source text: Four non-naive, male monkeys implanted with radiotelemetry transmitters were utilized during the conduct of this study.

human P-glycoprotein = target: T1, human P-glycoprotein (Homo sapiens, UniProt P08183); assay: Caco-2 cell monolayers: membrane permeability and P-glycoprotein interaction; assay type: in vitro ADME
T1 construct: assessed in vitro using Caco-2 cell monolayers; endogenous in cells; host or cells: Caco-2
T1 sequence (P08183 whole entry): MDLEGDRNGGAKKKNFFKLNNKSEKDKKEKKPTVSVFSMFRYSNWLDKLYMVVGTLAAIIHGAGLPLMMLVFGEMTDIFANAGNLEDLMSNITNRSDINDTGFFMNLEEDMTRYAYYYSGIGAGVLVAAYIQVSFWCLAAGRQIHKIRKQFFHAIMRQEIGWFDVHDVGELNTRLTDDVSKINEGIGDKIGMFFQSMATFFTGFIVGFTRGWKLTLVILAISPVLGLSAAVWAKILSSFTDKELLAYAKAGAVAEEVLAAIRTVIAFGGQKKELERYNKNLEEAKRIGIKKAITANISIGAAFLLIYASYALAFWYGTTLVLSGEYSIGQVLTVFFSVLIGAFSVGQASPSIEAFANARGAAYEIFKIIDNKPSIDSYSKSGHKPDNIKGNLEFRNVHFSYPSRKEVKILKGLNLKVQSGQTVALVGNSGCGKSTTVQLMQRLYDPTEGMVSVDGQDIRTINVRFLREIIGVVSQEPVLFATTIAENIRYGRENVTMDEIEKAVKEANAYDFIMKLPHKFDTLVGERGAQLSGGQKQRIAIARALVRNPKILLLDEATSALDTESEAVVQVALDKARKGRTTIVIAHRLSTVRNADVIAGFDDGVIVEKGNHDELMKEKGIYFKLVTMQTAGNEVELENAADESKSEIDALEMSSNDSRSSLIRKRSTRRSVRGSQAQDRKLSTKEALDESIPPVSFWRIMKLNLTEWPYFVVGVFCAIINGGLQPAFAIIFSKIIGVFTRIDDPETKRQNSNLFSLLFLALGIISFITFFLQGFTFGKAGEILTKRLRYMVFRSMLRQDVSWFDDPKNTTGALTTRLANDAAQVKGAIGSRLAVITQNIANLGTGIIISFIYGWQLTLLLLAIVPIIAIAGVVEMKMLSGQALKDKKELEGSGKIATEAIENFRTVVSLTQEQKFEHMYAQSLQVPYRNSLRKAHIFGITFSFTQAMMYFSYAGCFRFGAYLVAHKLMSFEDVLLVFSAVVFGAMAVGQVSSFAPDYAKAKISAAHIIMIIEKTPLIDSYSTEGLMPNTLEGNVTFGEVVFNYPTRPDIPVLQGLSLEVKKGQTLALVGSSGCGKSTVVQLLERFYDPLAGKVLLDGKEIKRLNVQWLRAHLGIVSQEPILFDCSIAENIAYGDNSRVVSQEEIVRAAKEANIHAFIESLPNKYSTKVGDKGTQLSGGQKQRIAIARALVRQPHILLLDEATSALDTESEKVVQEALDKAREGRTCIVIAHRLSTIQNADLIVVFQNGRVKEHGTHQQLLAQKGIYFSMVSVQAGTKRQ

circulating CLL cells = assay: Circulating CLL cells in treated CLL patients; assay type: in vivo, human; settings: 25 mg BID
serum biomarkers = assay: Serum biomarkers in patients, 28 day cycles; assay type: in vivo, human
[2] = embryo/fetal developmental toxicity study in rats; settings: female, rat, in vivo, 35 mg/kg/day; pregnant rats, last day of dosing; read-out: mean AUCO24 hr at the NOAEL
[3] = embryo/fetal developmental toxicity study in rabbits; settings: female, rabbit, in vivo, 75 mg/kg/day; pregnant rabbits, last day of dosing; read-out: mean AUCO24 hr at the NOAEL
[4] = clinical study in healthy adult subjects: pharmacokinetics; assay type: in vivo, human
[5] = clinical study in healthy adult subjects: safety; assay type: in vivo, human
[6] = test system: CD63 expression on CCR3+ basophils; assay: ex vivo anti-FcεR1 basophil activation assay, healthy subjects; assay type: in vivo, human; settings: single and multiple doses
[7] = test system: TNF-α and IL-10 production; assay: LPS-stimulated cytokine production in diluted whole blood; assay type: cell-based; settings: diluted whole blood (1:1), 24 hours pre-treatment, 100 μg/mL LPS
PI3K δ = PI3K δ (Homo sapiens, UniProt O00329); assay: PK/PD: plasma concentration versus PI3K-δ inhibition; assay type: in vivo; settings: PK/PD in patients
PI3K δ, sequence (O00329 whole entry): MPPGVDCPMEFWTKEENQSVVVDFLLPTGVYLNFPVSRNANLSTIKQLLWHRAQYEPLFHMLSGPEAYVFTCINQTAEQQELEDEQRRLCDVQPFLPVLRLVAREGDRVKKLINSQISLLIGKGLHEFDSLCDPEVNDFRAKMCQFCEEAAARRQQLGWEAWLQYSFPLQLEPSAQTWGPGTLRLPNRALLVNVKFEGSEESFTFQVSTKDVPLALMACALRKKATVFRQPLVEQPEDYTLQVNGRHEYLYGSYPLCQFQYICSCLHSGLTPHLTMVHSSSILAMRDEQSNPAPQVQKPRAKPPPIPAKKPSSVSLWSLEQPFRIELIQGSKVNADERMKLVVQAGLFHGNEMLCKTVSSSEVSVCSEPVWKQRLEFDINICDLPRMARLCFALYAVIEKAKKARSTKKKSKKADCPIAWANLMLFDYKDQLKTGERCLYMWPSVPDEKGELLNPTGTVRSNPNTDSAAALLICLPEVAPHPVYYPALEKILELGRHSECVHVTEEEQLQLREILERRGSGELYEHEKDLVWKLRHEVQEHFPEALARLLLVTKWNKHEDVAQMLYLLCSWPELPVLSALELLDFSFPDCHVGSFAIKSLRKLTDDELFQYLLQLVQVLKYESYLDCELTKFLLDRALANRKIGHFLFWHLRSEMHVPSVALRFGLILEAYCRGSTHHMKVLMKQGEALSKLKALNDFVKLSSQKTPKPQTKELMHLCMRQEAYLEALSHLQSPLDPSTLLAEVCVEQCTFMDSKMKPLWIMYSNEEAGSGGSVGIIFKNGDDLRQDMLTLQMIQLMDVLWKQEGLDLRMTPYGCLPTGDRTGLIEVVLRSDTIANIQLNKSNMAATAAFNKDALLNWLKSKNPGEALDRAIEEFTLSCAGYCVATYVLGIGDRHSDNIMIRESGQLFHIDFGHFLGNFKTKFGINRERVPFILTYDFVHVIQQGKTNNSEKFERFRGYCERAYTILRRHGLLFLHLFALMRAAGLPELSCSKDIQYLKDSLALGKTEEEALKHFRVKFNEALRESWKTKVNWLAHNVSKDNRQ
PI3K δ, sequence (P27986 whole entry partner): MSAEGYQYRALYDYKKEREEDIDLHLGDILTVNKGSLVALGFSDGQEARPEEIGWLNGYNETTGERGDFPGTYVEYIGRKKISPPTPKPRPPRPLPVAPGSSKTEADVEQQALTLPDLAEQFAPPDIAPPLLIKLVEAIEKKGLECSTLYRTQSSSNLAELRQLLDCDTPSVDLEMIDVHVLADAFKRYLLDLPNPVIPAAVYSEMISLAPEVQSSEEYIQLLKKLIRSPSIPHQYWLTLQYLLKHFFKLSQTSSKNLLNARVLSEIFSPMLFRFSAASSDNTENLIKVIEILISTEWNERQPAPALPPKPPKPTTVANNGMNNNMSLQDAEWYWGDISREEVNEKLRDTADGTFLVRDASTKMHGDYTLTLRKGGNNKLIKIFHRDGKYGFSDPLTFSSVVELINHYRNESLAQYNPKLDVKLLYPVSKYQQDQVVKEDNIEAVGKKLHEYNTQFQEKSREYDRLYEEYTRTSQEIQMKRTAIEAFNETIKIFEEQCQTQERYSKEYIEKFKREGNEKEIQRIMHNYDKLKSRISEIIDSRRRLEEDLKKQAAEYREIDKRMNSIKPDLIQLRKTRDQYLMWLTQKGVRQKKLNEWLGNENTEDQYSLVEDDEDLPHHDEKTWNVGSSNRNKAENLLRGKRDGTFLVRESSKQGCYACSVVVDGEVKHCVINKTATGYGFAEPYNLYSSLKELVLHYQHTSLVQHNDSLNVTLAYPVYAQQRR

Ri-1 = assay: cellular growth inhibition assay (72 hour CTG), DLBCL; assay type: cell-based; settings: Ri-1 (ABC)
OCI-LY-8 = assay: cellular growth inhibition assay, DLBCL; assay type: cell-based
WSU-DLCL-2 = assay: cellular growth inhibition assay, DLBCL; assay type: cell-based; settings: WSU-DLCL-2 (GCB)
[8] = test system: pAKT, pPRAS40 and pS6 in SU-DHL-6, SU-DHL-4 and Ri-1; assay: western blot of PI3K pathway proteins in DLBCL cell lines; assay type: cell-based
Experimental: At 1 hour after the treatment, levels of various proteins were assessed by western blot, the results of which are shown in FIG. 31.
Activation of the PI3K pathway is an important component of normal B-cell receptor (BCR) signaling and has been implicated in the pathogenesis of DLBCL. […] There was rapid modulation of phospho-AKT and phospho-PRAS40 by 30 minutes, whereas modulation of phospho-S6 was not detected until after 8 hours.

phospho-BTK in SU-DHL-4 = assay: phospho-BTK in DLBCL cells; assay type: cell-based; settings: SU-DHL-4 cells
PTEN deletion cell lines = assay: sensitivity of PTEN deletion cell lines; assay type: cell-based
[9] = test system: PTEN wildtype cell lines (Molt-13 and Molt-16); assay: growth inhibition of T-ALL cells; assay type: cell-based
HH cells = assay: CTCL cytotoxicity, 72 hours; assay type: cell-based
Experimental: MJ and HuT78 cells were grown in IMDM 20% FBS, and HH cells were grown in RPMI 10% FBS.

migration of CLL cells = assay: chemotaxis assay; assay type: cell-based; settings: n=8
Source text: (§1) (FIGS. 35 and 36). […] In addition, this direct inhibitory effect on CLL cells in the lymph nodes could lead to rapid and prolonged responses in cancer patients.

CLL cells = assay: production of reactive oxygen species; assay type: cell-based; settings: n=6
Source text: as §1

[10] = multiple doses for 2 weeks (n=36)
[11] = time-course in selected DLBCL cell lines

C[C@H](Nc1ncnc2[nH]cnc12)c1cc2cccc(Cl)c2c(=O)n1-c1ccccc1 [Compound 292]
waveform abnormalities or arrhythmias [1]: no waveform abnormalities or arrhythmias
cell membrane permeability (human P-glycoprotein): moderate
inhibition of active transport of other P-gp substrates (human P-glycoprotein): has the potential to inhibit the active transport of other P-gp substrates
CD38/CD69 double positive circulating CLL cells (circulating CLL cells): reduction
CD38 positive circulating CLL cells (circulating CLL cells): reduction
CD69 positive circulating CLL cells (circulating CLL cells): reduction
levels of CLL biomarkers in serum (serum biomarkers; 25 mg BID): decrease
levels of T-cell lymphoma biomarkers in serum (serum biomarkers; 25 mg BID): decrease
levels of iNHL biomarkers in serum (serum biomarkers; 25 mg BID): decrease
levels of lymphoma biomarkers in serum (serum biomarkers; 25 mg BID): decrease
levels of CLL biomarkers in serum (serum biomarkers; 25 mg or 75 mg BID): decrease
levels of iNHL biomarkers in serum (serum biomarkers; 25 mg or 75 mg BID): decrease
AUC [2]: 62200 ng·h/mL
AUC [3]: 66200 ng·h/mL
accumulation ([4]; 14 days of Q12 h oral administration): less than 2 fold
exposure versus dose ([4]; across the dose ranges evaluated): increased proportionally to dose
deaths and serious adverse events (SAEs) ([5]; healthy subjects): no deaths and no serious adverse events
headache (non-procedural AE) [5, 10]: 8%
myalgia (non-procedural AE) [5, 10]: 6%
nasopharyngitis (non-procedural AE) [5, 10]: 6%
largest change from baseline in QTcF ([5]; serial ECGs, all study groups): 37 ms
subjects with QTcF greater than 500 msec ([5]; serial ECGs, all study groups): No subject
tolerability ([5]; single doses up to 30 mg, multiple doses up to 10 mg daily for 14 days): well tolerated; also recorded: well-tolerated
time of maximum reduction of basophil activation [6]: 1 hr post dose
reduction of basophil activation (CD63 expression) ([6]; all dose levels): dose-dependent reduction; also recorded: reduced in a dose-dependent manner
cytokine (TNF-α and IL-10) production [7]: inhibition
dose at which complete inhibition of PI3K-δ can be achieved (PI3K δ): ≥ 15 mg BID
sensitivity in cellular growth inhibition assay (Ri-1): more sensitive; also recorded: nanomolar (nM) range
IC50, cellular growth inhibition (OCI-LY-8; OCI-LY-8 (GCB), without BCR crosslinking): low micromolar (μM) range
sensitivity in cellular growth inhibition assay (OCI-LY-8; OCI-LY-8 with BCR crosslinking): nM range
IC50, cellular growth inhibition (WSU-DLCL-2): low micromolar (μM) range
levels of pAKT, pPRAS40 and pS6 ([8]; 0.001-1 μM, 1 hour, western blot, SU-DHL-6, SU-DHL-4 and Ri-1): decrease
time to detection of modulation of phospho-S6 [8, 11]: > 8 h
time to modulation of phospho-AKT and phospho-PRAS40 [8, 11]: ≤ 30 min
level of pBTK (phospho-BTK) (phospho-BTK in SU-DHL-4): not modulated
sensitivity (PTEN deletion cell lines; 145 subsets of PTEN deletion cell lines): differentially susceptible
sensitivity (PTEN deletion cell lines; PTEN wild type cells): not sensitive
growth inhibition [9]: resistant
cytotoxicity, sensitivity (HH cells): more sensitive
reduction in migration of CLL cells, % control reduction, range (migration of CLL cells): 2-42%
production of reactive oxygen species (CLL cells): enhanced

Reference: patent publication US20170360795A1, “TREATMENT OF CANCERS USING PI3 KINASE ISOFORM MODULATORS” (INFINITY PHARMACEUTICALS, INC., priority 2013, published 2017)
